Measurements: patent publication US4731383A, “Aminoguanidine compounds, their compositions and pharmaceutical uses” (Biogal Gyogyszergyar, priority 1983, dated 1988)
Where a name gives a salt, the structure may show the parent alone. Read-outs that look alike come from different tables or passages of the source.

Legend:
[1] = tested on: mice treated with aconitin; assay: animal or person; format: in vivo; conditions: Mus musculus, read-out: Delay in the appearance time of arrhythmia
Experimental: Arrhytmia was induced in male mice, weighing 20 to 25 g, by treating them continuously, at a rate of 0.2 ml/min with an infusion containing 5 μg/kg of aconitin. The test compound was administered to the animals either intraperitoneally (by injecting it into the abdominal cavity) 15 minutes before the start of the infusion, or orally 60 minutes before the onset of the infusion. The time of the appearance of arrhythmia was recorded, and the percentage of delay was calculated in relation to the data obtained in the controls, pretreated with 0.9 percent sodium chloride solution only [B. Vargaftig and J. L. Coignet: European J. of Pharmacol. 6, 49 to 55 (1969); N. K. Dadkar and B. K. Bhattachariya: Arch. Int. Pharmacodyn. 212, 297 to 301 (1974); D. U. Nwagwu, T. L. Holcslaw and S. J. Stohs: Arch. Int. Pharmacodyn. 229, 219 to 226 (1977)].

in vivo = conditions: mouse
[2] = tested on: right ventricle of isolated rabbit heart; assay: Electrophysiological tests in the isolated rabbit heart, right ventricle; conditions: 2.0 mg/l, n = 4
Experimental: (§1) Hearts of rabbits of both sexes, weighing 1 to 2 kg, were removed, the right and left auricles and a segment of the right ventricle were prepared and placed into a vessel filled with nutrient solution. Bipolar platinum electrodes (a stimulating electrode and a lead electrode) were placed on the organ strips, and the electric stimulus threshold and the speed of impulse conduction were measured. The effective refractory period was determined on the basis of the maximal driving frequency.

[3] = tested on: anaesthesized cats, fibrillation threshold of the heart; assay: Determination of the fibrillation threshold in anaesthetized cats; format: in vivo; conditions: cat
Excerpt: The chests of the cats were opened under chloralose-urethane anaesthesia, a bipolar stimulating electrode was fixed onto the heart, and the heart was stimulated electrically with a frequency of 20 Hz, under continuously increasing current strength, until a fibrillo-flattern could be observed. This current strength was considered as the fibrillation threshold of the animal.

[4] = tested on: left auricle of isolated rabbit heart; assay: Electrophysiological tests in the isolated rabbit heart, left auricle; conditions: 2.0 mg/l, n = 4
Experimental: as §1

CCN(CC)C(=N)NNc1ccccc1C [Example 4, 1-(2-Methyl-phenyl)-4,4-diethyl-aminoguanidine hydrochloride]
change in vivo at 5 mg/kg ([1]; ip): 28% | change in vivo at 10 mg/kg ([1]; ip): 77%

CN(C)C(=N)NNc1c(Cl)cccc1Cl [Example 2, 1-(2,6-Dichlorophenyl)-4,4-dimethyl-aminoguanidine]
LD50 (in vivo; ip): 73 mg/kg | LD50 (in vivo; po): 220 mg/kg | change in vivo at 25 mg/kg ([1]; ip): 79% | change in vivo at 50 mg/kg ([1]; ip): 156% | change in vivo at 25 mg/kg ([1]; po): 39% | change in vivo at 50 mg/kg ([1]; po): 71% | change in vivo at 100 mg/kg ([1]; po): 150%

CCN(CC)C(=N)NNc1ccccc1Cl [Example 3, 1-(2-Chlorophenyl)-4,4-diethyl-aminoguanidine hydrochloride]
change in vivo at 10 mg/kg ([1]; ip): 108% | change in vivo at 20 mg/kg ([1]; ip): 68%

Cc1cccc(C)c1OCC(C)N.Cl (stereo not drawn) [Mexiletin, 1-(2,6-Dimethylphenoxy)-2-aminopropane hydrochloride, reference compound]
Change in conduction time [2]: +11% | Change in electric stimulus threshold [2]: +6% | Change in max. driving frequency [2]: -28% | Percentual change in the fibrillation threshold ([3]; 10.0 mg/kg i.v., 10 min following treatment): +161.2% | Percentual change in the fibrillation threshold ([3]; 10.0 mg/kg i.v., 20 min following treatment): +92.0% | Change in conduction time [4]: +24% | Change in electric stimulus threshold [4]: 36% | Change in max. driving frequency [4]: -32% | change in vivo at 5 mg/kg ([1]; ip): 3.5% | change in vivo at 10 mg/kg ([1]; ip): 7.7% | change in vivo at 25 mg/kg ([1]; ip): 33% | change in vivo at 50 mg/kg ([1]; ip): 83% | change in vivo at 75 mg/kg ([1]; ip): 162% | change in vivo at 100 mg/kg ([1]; po): 93%

Cc1ccccc1NNC(=N)N1CCCC1 [Example 7]
change in vivo at 25 mg/kg ([1]; ip): 50% | change in vivo at 50 mg/kg ([1]; ip): 128% | change in vivo at 50 mg/kg ([1]; po): 54% | change in vivo at 100 mg/kg ([1]; po): 137%

C=C[C@H]1C[N@@]2CC[C@H]1C[C@@H]2[C@@H](O)c1ccnc2ccc(OC)cc12 [Quinidine, quinidine, reference compound]
Percentual change in the fibrillation threshold ([3]; 10 mg/kg i.d., 10 minutes following treatment): +0.4% | Percentual change in the fibrillation threshold ([3]; 10 mg/kg i.d., 20 minutes following treatment): +26.7% | Percentual change in the fibrillation threshold ([3]; 10 mg/kg i.d., 30 minutes following treatment): +58.5% | Percentual change in the fibrillation threshold ([3]; 10 mg/kg i.d., 40 minutes following treatment): +48.5% | Percentual change in the fibrillation threshold ([3]; 10 mg/kg i.d., 50 minutes following treatment): +32.1% | Percentual change in the fibrillation threshold ([3]; 10 mg/kg i.d., 70 minutes following treatment): +9.5% | Percentual change in the fibrillation threshold ([3]; 10 mg/kg i.d., 80 minutes following treatment): +8.8% | Percentual change in the fibrillation threshold ([3]; 10 mg/kg i.d., 90 minutes following treatment): +3.8% | Percentual change in the fibrillation threshold ([3]; 10 mg/kg i.d., 100 minutes following treatment): 0.0%

CN(C)C(=N)NNc1ccccc1 [Example 18]
change in vivo at 100 mg/kg ([1]; po): 74%

Cc1ccccc1NNC(=N)N1CCOCC1 [Example 22]
change in vivo at 50 mg/kg ([1]; ip): 100%

CCc1cccc(C)c1NNC(=N)N(C)C [Example 21]
change in vivo at 25 mg/kg ([1]; ip): 110% | change in vivo at 50 mg/kg ([1]; ip): 86%

CN(C)C(=N)NNc1cccc(Cl)c1 [Example 9]
change in vivo at 50 mg/kg ([1]; ip): 171%

Cc1cccc(C)c1NNC(=N)N1CCCC1 [Example 11]
Percentual change in the fibrillation threshold ([3]; 2.0 mg/kg i.v., 2 min following treatment): +130.6% | Percentual change in the fibrillation threshold ([3]; 2.0 mg/kg i.v., 10 min following treatment): +149.0% | Percentual change in the fibrillation threshold ([3]; 2.0 mg/kg i.v., 20 min following treatment): +163.3% | Percentual change in the fibrillation threshold ([3]; 4.0 mg/kg i.v., 2 min following treatment): +176.0% | Percentual change in the fibrillation threshold ([3]; 4.0 mg/kg i.v., 10 min following treatment): +328.0% | Percentual change in the fibrillation threshold ([3]; 4.0 mg/kg i.v., 20 min following treatment): +316.0% | Percentual change in the fibrillation threshold ([3]; 20 mg/kg i.d., 10 minutes following treatment): +5.8% | Percentual change in the fibrillation threshold ([3]; 20 mg/kg i.d., 20 minutes following treatment): +22.0% | Percentual change in the fibrillation threshold ([3]; 20 mg/kg i.d., 30 minutes following treatment): +43.8% | Percentual change in the fibrillation threshold ([3]; 20 mg/kg i.d., 40 minutes following treatment): +79.6% | Percentual change in the fibrillation threshold ([3]; 20 mg/kg i.d., 50 minutes following treatment): +115% | Percentual change in the fibrillation threshold ([3]; 20 mg/kg i.d., 60 minutes following treatment): +118% | Percentual change in the fibrillation threshold ([3]; 20 mg/kg i.d., 70 minutes following treatment): +141% | Percentual change in the fibrillation threshold ([3]; 20 mg/kg i.d., 80 minutes following treatment): +198% | Percentual change in the fibrillation threshold ([3]; 20 mg/kg i.d., 90 minutes following treatment): +209.5% | Percentual change in the fibrillation threshold ([3]; 20 mg/kg i.d., 100 minutes following treatment): +272.5%

CC1CCCCN1C(=N)NNc1ccccc1Cl (stereo not drawn) [Example 8]
change in vivo at 5 mg/kg ([1]; ip): 32% | change in vivo at 10 mg/kg ([1]; ip): 110%

CN(C)C(=N)NNc1ccccc1Cl [Example 6]
change in vivo at 50 mg/kg ([1]; ip): 114% | change in vivo at 100 mg/kg ([1]; po): 70%
